Data reported in patent publication US10844051B2, “Substituted oxazoles for the treatment of cancer” (THE ROYAL INSTITUTION FOR THE ADCANCEMENT OF …, priority 2015, dated 2020).

Experiments:
ETV1 = molecular target: T1, ETV1 (Homo sapiens, UniProt P50549); experiment: ETV1-dependent reporter assay in HEK293 cells; type: cell-based; conditions: 48 hours
T1 construct: expressed in transfected cells; host or cells: HEK293
T1 sequence (P50549 1-477): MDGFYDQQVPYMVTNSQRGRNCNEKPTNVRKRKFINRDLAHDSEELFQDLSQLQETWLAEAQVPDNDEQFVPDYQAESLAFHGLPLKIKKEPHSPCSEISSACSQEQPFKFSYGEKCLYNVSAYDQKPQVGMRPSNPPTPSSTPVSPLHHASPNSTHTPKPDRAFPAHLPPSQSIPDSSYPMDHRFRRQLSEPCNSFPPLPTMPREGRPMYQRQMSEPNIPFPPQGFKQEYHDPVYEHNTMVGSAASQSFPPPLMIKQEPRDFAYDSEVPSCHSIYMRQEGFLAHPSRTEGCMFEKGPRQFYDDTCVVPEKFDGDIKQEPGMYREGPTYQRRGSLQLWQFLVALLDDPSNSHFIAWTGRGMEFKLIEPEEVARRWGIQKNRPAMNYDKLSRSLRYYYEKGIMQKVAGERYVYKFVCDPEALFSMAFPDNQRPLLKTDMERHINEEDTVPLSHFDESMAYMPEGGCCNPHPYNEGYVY
Description: HEK293 cells were transiently transfected with empty vector (for the NT) or ERG-expressing plasmid as well as pRL-TK (internal control) and PUx3-Luc reporter. Cells were then exposed to DMSO vehicle or compounds at designated doses for 48 hours. Experiments were done in triplicate.
Experiments were done as described above in FIG. 1.1a) except that ERG plasmid was replaced by ETV1 plasmid.

LNCaP cells = experiment: MTT cytotoxicity assay in ETV1-positive LNCaP cells; type: cell-based; conditions: 72 hours
Description: FIG. 1.8 Cytotoxicity of compounds 827 and 832 in the ETV1-postive LNCaP cells as evaluated by MTT assay (72 hours).

Compound | ETV1 inhibition in ETV1-dependent reporter assay (ETV1) | cytotoxicity in ETV1-positive LNCaP cells (MTT) (LNCaP cells)
c1coc(-c2nc(Cc3c[nH]c4ccccc34)[nH]c2-c2ccco2)c1 [Compound 832] | ETV1 inhibitors | cytotoxic
c1coc(-c2nc(Cc3c[nH]c4ccccc34)oc2-c2ccco2)c1 [Compound 827] | ETV1 inhibitors | cytotoxic
